Consider 17 compounds from US20250275539A1, “APYRASE INHIBITORS” (Texas Crop Science, Inc., priority 2024, published 2025).

In this assay the test system is apyrase. Briefly: Apyrase inhibition assay (screen for apyrase inhibitors, phosphate release read at 630 nm). The assay is classed as biochemical. The conditions noted are these: inhibitor conc at 1 mM (10 μl added), 3 mM ATP, pH 6.5, room temperature 1 hr. The procedure: Apyrase inhibitors useful as enhancers of pesticidal activity are assessed using an in vitro assay. The method of Windsor, Bio Techniques 33:1024-1030 (November 2002) was used as follows
• 96 well plates were used for the assay: (Greiner bio-one: REF-655901-96 well, PS, F-bottom, Clear, Non-binding)
• Reaction Buffer: 60 mM Hepes; 3 mM MgCl2, 3 mM CaCl2) and 3 mM ATP (pH 6.5) • Development Buffer A: 2% aqueous ammonium molybdate • Development Buffer B: 11% ascorbic acid in 37.5% TCA in water • Stop buffer C: 2% trisodium citrate in 2% acetic acid solution in water
• Add 100 μl of reaction buffer to each well. • Add 10 μl of DMSO (control) or inhibitor/compound or compounds such as N1915 or orthovanadate to each well. (use inhibitor conc at 1 mM; orthovanadate at 2 mM and N1915 at 1 mM) • Add 10 μl of apyrase (concentration based on optimization—Dilute 1 U/μl enzyme to different concentrations such as 0.1 U, 0.05 U, 0.0025, 0.001 U, 0.0005 U—to find a good range) • Incubate plate at room temperature for 1 hr • Mix development buffer A and B in the ratio of 1:1.5 (just before use). • Add 50 μl of A: B mix in each well (incubate for 2 mins) • Add 50 μl of C in each well • Measure/Read Absorbance of plate @630 nm
Inhibitory data for the apyrase assay described above are provided for selected compounds in Table 3. D is inhibition of 0% to 10%, C is inhibition from 10% to 20%, B is inhibition from 20% to 30%, and A is inhibition above 30%. Blank entries signify compounds that were not tested.
With `CCCc1ccc(S(=O)(=O)Nc2ccc(C)c(S(=O)(=O)N(C)C)c2)cc1` [Compound A-89, N,N,2-trimethyl-5-((4-propylphenyl)sulfonamido) benzenesulfonamide], the Inhibition entry is recorded as “D (D is inhibition of 0% to 10%)”. To `CCCc1ccc(S(=O)(=O)Nc2ccc(CC(=O)O)cc2)cc1` [Compound A-46, 2-(4-((4-propylphenyl)sulfonamido)phenyl)acetic acid] belongs “A (A is inhibition above 30%)”; to `CCCc1ccc(S(=O)(=O)Nc2ccccc2CC)cc1` [Compound A-48, N-(2-ethylphenyl)-4-propylbenzenesulfonamide], “B (B is inhibition from 20% to 30%)”; to `CCCc1ccc(S(=O)(=O)Nc2ccc(S(C)(=O)=O)cc2)cc1` [Compound A-50, N-(4-(methylsulfonyl)phenyl)-4-propylbenzenesulfonamide], “C (C is inhibition from 10% to 20%)”.

Take `CCCc1ccc(S(=O)(=O)Nc2cc(Cl)ccc2OC)cc1` [Compound A-74, N-(5-chloro-2-methoxyphenyl)-4-propylbenzenesulfonamide]: the Inhibition entry is reported as “C (C is inhibition from 10% to 20%)”.

With `CCCc1ccc(S(=O)(=O)Nc2cc(OC)c(Cl)cc2OC)cc1` [Compound A-68, N-(4-chloro-2,5-dimethoxyphenyl)-4-propylbenzenesulfonamide], the Inhibition entry was “D (D is inhibition of 0% to 10%)”. As for `CCCc1ccc(S(=O)(=O)Nc2cccc(CN3CCOC3=O)c2)cc1` [Compound A-110, N-(3-((2-oxooxazolidin-3-yl)methyl)phenyl)-4-propylbenzenesulfonamide], the entry is “C (C is inhibition from 10% to 20%)”. To `CCCc1ccc(S(=O)(=O)Nc2cccc(C(=O)O)c2)cc1` [Compound A-75, 3-((4-propylphenyl)sulfonamido) benzoic acid] belongs “D (D is inhibition of 0% to 10%)”; to `CCCc1ccc(S(=O)(=O)Nc2cccc(N3CCCC3=O)c2)cc1` [Compound A-7, N-(3-(2-oxopyrrolidin-1-yl)phenyl)-4-propylbenzenesulfonamide], “C (C is inhibition from 10% to 20%)”. As to `CCCc1ccc(S(=O)(=O)Nc2ccccc2Cl)cc1` [Compound A-71, N-(2-chlorophenyl)-4-propylbenzenesulfonamide], the Inhibition entry is listed as “D (D is inhibition of 0% to 10%)”. As for `CCCC(=O)Nc1cccc(NS(=O)(=O)c2ccc(CCC)cc2)c1C` [Compound A-118, N-(2-methyl-3-((4-propylphenyl)sulfonamido)phenyl)butyramide], the entry is “D (D is inhibition of 0% to 10%)”; as for `CCCc1ccc(S(=O)(=O)Nc2cc(Cl)ccc2N2CCOCC2)cc1` [Compound A-47, N-(5-chloro-2-morpholinophenyl)-4-propylbenzenesulfonamide], “B (B is inhibition from 20% to 30%)”; as for `CCCc1ccc(S(=O)(=O)Nc2c(C(C)C)cccc2C(C)C)cc1` [Compound A-76, N-(2,6-diisopropylphenyl)-4-propylbenzenesulfonamide], “C (C is inhibition from 10% to 20%)”. To `CCCc1ccc(S(=O)(=O)Nc2ccc(O)c(NC(C)=O)c2)cc1` [Compound A-38, N-(2-hydroxy-5-((4-propylphenyl)sulfonamido)phenyl)acetamide] belongs “C (C is inhibition from 10% to 20%)”.

Regarding `CCCc1ccc(S(=O)(=O)Nc2ccc(Cl)c(C(=O)O)c2)cc1` [Compound A-102, 2-chloro-5-((4-propylphenyl)sulfonamido) benzoic acid], the Inhibition entry is “D (D is inhibition of 0% to 10%)”. To `O=S(=O)(c1ccc(-c2ccccc2)cc1)N1CCc2ccccc21` [Compound A-114] belongs “D (D is inhibition of 0% to 10%)”; to `CCCc1ccc(S(=O)(=O)Nc2ccccc2-n2cnnn2)cc1` [Compound A-109, N-(2-(1H-tetrazol-1-yl)phenyl)-4-propylbenzenesulfonamide], “C (C is inhibition from 10% to 20%)”.
